Assays:
Assay in all cases: biochemical
Design in all cases: CEREP panel radioligand binding displacement, % inhibition of control specific binding by 10 uM 2BAct
5-HT1A (h) = molecular target: T1, 5-HT1A (h) (Homo sapiens, UniProt P08908); conditions: Type=Agonist radioligand; read-out: % inhibition of Control specific binding
T1 construct: gene HTR1A
Experimental: (§1) Supplementary file elife-42940-supp1.xlsx: Supplementary file 1. (A) Binding of 2BAct at 10 μM to the CEREP panel of receptors/enzymes/ion channels. Compound binding was calculated as a % inhibition of the binding of a radioactively labeled ligand specific for each target. Results showing inhibition or stimulation higher than 50% are considered to represent significant effects of the test compound. (B) Pharmacokinetic data from 2BAct dosing in mice. (C) GO Biological Processes identified by enrichment analysis of RNA-seq data. (D) List of genes used for enrichment analysis of scRNA-seq data.

5-HT2C (h) = molecular target: T2, 5-HT2C (h) (Homo sapiens, UniProt P28335); conditions: Type=Antagonist radioligand; read-out: % inhibition of Control specific binding
T2 construct: gene HTR2C
Experimental: as §1

5-HT4E (h) = molecular target: T3, 5-HT4E (h) (Homo sapiens, UniProt Q13639); conditions: Type=Antagonist radioligand; read-out: % inhibition of Control specific binding
T3 construct: gene HTR4; isoform 4E
T3 sequence (Q13639 whole entry, canonical isoform): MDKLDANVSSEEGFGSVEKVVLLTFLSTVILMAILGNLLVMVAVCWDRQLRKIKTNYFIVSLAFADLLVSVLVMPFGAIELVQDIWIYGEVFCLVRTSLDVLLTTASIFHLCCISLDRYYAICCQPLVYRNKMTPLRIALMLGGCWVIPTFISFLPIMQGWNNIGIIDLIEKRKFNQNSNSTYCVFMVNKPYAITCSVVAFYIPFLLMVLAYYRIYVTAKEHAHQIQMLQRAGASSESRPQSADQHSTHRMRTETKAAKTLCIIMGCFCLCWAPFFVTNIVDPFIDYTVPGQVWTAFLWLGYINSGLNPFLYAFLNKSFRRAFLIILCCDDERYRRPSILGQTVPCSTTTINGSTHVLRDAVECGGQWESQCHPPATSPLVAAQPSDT
Experimental: as §1

A2b (h) [1] = molecular target: T4, A2b (h) (Homo sapiens, UniProt P29275); conditions: Type=Antagonist radioligand; read-out: % inhibition of Control specific binding
T4 construct: gene ADORA2B
Experimental: as §1

AT2 (h) = molecular target: T5, AT2 (h) (Homo sapiens, UniProt P50052); conditions: Type=Agonist radioligand; read-out: % inhibition of Control specific binding
T5 construct: gene AGTR2
T5 sequence (P50052 whole entry): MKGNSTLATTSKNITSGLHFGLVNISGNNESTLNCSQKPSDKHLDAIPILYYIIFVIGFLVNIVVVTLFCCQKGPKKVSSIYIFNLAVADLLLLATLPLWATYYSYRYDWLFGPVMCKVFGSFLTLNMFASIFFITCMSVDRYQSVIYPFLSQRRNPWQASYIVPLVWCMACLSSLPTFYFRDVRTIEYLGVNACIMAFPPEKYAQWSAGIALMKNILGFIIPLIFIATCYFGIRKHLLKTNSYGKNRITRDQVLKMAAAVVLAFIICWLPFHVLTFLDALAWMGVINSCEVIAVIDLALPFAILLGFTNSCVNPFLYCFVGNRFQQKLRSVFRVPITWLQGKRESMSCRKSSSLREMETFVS
Experimental: as §1

B2 (h) [2] = molecular target: T6, B2 (h) (Homo sapiens, UniProt P30411); conditions: Type=Agonist radioligand; read-out: % inhibition of Control specific binding
T6 construct: gene BDKRB2
T6 sequence (P30411 whole entry): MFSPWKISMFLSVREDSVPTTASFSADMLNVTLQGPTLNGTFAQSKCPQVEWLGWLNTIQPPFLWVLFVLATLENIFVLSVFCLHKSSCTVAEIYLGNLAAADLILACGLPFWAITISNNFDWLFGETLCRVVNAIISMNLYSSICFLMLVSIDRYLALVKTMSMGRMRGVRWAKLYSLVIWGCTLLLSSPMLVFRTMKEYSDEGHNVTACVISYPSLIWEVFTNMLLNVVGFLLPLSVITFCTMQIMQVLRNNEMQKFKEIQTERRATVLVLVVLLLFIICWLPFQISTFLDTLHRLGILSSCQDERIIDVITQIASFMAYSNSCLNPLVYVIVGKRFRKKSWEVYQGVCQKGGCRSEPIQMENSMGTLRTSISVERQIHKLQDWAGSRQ
Experimental: as §1

BZD (peripheral) = molecular target: T7, BZD (peripheral) (Rattus norvegicus, UniProt P16257); conditions: Type=Antagonist radioligand; read-out: % inhibition of Control specific binding
T7 construct: gene Tspo; peripheral
T7 sequence (P16257 whole entry): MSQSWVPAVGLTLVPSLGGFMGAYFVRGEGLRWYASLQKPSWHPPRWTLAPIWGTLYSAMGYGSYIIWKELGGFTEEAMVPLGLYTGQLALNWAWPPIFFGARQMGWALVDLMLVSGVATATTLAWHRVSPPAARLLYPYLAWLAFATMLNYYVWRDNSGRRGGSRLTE
Experimental: as §1

CB1 (h) = molecular target: T8, CB1 (h) (Homo sapiens, UniProt P21554); conditions: Type=Agonist radioligand; read-out: % inhibition of Control specific binding
T8 construct: gene CNR1
T8 sequence (P21554 whole entry): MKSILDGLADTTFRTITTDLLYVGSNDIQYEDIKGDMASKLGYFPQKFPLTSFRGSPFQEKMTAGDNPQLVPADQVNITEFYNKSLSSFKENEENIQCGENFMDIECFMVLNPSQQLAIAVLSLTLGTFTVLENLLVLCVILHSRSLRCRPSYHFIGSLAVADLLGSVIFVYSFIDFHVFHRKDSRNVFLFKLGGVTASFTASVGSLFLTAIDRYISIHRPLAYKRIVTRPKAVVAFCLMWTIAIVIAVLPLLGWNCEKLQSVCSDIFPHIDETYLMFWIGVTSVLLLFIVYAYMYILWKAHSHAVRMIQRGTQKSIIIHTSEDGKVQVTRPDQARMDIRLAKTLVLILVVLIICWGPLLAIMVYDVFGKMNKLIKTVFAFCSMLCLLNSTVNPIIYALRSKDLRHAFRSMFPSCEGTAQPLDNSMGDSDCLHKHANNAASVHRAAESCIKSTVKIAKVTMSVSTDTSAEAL
Experimental: as §1

CB2 (h) = molecular target: T9, CB2 (h) (Homo sapiens, UniProt P34972); conditions: Type=Agonist radioligand; read-out: % inhibition of Control specific binding
T9 construct: gene CNR2
T9 sequence (P34972 whole entry): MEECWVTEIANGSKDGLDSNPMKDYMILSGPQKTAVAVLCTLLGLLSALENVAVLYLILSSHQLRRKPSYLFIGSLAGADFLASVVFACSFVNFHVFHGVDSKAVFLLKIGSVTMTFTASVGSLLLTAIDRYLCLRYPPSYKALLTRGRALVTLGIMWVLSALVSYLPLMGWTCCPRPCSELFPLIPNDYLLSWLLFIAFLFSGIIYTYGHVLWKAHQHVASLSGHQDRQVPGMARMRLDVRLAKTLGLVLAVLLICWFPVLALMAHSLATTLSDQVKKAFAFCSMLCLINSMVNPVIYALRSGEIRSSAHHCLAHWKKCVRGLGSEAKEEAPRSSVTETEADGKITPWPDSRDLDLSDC
Experimental: as §1

EP2 (h) = molecular target: T10, EP2 (h) (Homo sapiens, UniProt P43116); conditions: Type=Agonist radioligand; read-out: % inhibition of Control specific binding
T10 construct: gene PTGER2
T10 sequence (P43116 whole entry): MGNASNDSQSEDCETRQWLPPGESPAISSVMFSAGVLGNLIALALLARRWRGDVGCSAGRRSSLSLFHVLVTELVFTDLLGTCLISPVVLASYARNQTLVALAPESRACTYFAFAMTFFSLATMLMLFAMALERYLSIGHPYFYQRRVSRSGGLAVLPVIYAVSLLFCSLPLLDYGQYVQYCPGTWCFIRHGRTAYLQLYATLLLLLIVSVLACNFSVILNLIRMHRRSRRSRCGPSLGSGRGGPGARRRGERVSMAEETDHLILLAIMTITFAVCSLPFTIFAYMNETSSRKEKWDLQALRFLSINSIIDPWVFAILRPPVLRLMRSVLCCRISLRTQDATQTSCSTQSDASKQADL
Experimental: as §1

ET-B (h) = molecular target: T11, ET-B (h) (Homo sapiens, UniProt P24530); conditions: Type=Agonist radioligand; read-out: % inhibition of Control specific binding
T11 construct: gene EDNRB
Experimental: as §1

M1 (h) = molecular target: T12, M1 (h) (Homo sapiens, UniProt P11229); conditions: Type=Antagonist radioligand; read-out: % inhibition of Control specific binding
T12 construct: gene CHRM1
Experimental: as §1

M2 (h) = molecular target: T13, M2 (h) (Homo sapiens, UniProt P08172); conditions: Type=Antagonist radioligand; read-out: % inhibition of Control specific binding
T13 construct: gene CHRM2
T13 sequence (P08172 whole entry): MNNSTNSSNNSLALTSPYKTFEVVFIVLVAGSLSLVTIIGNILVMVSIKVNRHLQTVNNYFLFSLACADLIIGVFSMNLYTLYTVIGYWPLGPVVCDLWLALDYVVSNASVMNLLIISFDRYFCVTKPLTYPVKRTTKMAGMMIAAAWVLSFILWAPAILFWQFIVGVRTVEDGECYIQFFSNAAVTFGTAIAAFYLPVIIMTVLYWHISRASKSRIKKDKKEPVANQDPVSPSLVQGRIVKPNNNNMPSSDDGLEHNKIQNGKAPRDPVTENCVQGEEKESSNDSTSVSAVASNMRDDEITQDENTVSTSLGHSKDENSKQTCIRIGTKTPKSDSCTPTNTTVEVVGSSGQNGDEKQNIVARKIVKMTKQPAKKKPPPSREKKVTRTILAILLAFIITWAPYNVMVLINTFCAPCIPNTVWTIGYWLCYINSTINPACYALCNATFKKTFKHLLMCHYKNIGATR
Experimental: as §1

M3 (h) = molecular target: T14, M3 (h) (Homo sapiens, UniProt P20309); conditions: Type=Antagonist radioligand; read-out: % inhibition of Control specific binding
T14 construct: gene CHRM3
Experimental: as §1

NK2 (h) = molecular target: T15, NK2 (h) (Homo sapiens, UniProt P21452); conditions: Type=Agonist radioligand; read-out: % inhibition of Control specific binding
T15 construct: gene TACR2
T15 sequence (P21452 whole entry): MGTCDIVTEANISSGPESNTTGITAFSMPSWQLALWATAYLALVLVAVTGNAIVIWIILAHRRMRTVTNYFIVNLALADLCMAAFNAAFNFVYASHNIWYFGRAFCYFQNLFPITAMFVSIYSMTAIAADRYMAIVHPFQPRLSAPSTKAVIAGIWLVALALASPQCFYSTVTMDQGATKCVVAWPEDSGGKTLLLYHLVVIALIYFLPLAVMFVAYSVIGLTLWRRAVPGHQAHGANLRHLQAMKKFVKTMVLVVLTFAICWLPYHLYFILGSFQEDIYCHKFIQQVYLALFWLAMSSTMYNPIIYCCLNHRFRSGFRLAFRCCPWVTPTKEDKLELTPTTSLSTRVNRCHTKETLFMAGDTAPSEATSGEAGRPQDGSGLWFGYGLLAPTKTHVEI
Experimental: as §1

V1a (h) = molecular target: T16, V1a (h) (Homo sapiens, UniProt P37288); conditions: Type=Agonist radioligand; read-out: % inhibition of Control specific binding
T16 construct: gene AVPR1A
Experimental: as §1

a2A (h) = molecular target: T17, a2A (h) (Homo sapiens, UniProt P08913); conditions: Type=Antagonist radioligand; read-out: % inhibition of Control specific binding
T17 construct: gene ADRA2A
Experimental: as §1

a2B (h) [3] = molecular target: T18, a2B (h) (Homo sapiens, UniProt P18089); conditions: Type=Antagonist radioligand; read-out: % inhibition of Control specific binding
T18 construct: gene ADRA2B
T18 sequence (P18089 whole entry): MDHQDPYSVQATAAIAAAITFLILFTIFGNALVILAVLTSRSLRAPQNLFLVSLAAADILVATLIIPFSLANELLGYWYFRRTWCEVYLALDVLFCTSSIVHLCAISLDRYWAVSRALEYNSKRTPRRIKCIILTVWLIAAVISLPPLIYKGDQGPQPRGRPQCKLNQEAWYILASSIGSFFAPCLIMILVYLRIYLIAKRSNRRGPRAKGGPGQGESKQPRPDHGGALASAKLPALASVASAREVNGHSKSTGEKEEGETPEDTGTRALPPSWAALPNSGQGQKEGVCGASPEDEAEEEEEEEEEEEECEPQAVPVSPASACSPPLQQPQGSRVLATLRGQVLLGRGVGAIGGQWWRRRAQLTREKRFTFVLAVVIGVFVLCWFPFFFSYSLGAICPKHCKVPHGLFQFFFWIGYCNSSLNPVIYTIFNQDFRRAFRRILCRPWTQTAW
Experimental: as §1

b2 (h) [4] = molecular target: T19, b2 (h) (Homo sapiens, UniProt P07550); conditions: Type=Agonist radioligand; read-out: % inhibition of Control specific binding
T19 construct: gene ADRB2
Experimental: as §1

d (DOP) (h) = molecular target: T20, d (DOP) (h) (Homo sapiens, UniProt P41143); conditions: Type=Agonist radioligand; read-out: % inhibition of Control specific binding
T20 construct: gene OPRD1
T20 sequence (P41143 whole entry): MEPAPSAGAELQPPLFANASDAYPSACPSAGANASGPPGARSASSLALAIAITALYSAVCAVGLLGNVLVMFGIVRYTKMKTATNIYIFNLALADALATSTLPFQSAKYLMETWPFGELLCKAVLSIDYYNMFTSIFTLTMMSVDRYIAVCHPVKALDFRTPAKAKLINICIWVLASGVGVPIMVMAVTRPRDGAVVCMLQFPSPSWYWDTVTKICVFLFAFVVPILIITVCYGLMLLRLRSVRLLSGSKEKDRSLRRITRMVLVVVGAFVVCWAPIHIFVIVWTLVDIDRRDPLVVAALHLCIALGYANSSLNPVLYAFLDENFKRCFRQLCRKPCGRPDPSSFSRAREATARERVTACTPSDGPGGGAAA
Experimental: as §1

dopamine transporter (h) = molecular target: T21, dopamine transporter (h) (Homo sapiens, UniProt Q01959); conditions: Type=Antagonist radioligand; read-out: % inhibition of Control specific binding
T21 construct: gene SLC6A3
Experimental: as §1

motilin (h) = molecular target: T22, motilin (h) (Homo sapiens, UniProt O43193); conditions: Type=Agonist radioligand; read-out: % inhibition of Control specific binding
T22 construct: gene MLNR
T22 sequence (O43193 whole entry): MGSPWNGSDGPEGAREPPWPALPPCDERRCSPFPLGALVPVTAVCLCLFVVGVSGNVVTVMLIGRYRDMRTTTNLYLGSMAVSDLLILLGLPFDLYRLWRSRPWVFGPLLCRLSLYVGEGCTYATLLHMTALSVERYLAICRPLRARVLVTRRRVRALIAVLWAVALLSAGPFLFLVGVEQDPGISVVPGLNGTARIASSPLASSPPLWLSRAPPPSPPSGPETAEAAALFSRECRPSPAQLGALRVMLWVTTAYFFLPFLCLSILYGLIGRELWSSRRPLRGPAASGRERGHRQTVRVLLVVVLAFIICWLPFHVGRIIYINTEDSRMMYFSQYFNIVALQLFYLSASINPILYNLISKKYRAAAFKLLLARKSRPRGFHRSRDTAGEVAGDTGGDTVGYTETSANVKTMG
Experimental: as §1

## O=C(COc1ccc(Cl)c(F)c1)NC12CC(NC(=O)c3cnc(C(F)F)cn3)(C1)C2 [2BAct]
5-HT1A (h)
  inhibition at 10 µM: 15.8%
5-HT2C (h)
  inhibition at 10 µM: 38.7%
5-HT4E (h)
  inhibition at 10 µM: 8.2%
A2b (h) [1]
  inhibition at 10 µM: 50.1%
AT2 (h)
  inhibition at 10 µM: 0.2%
B2 (h) [2]
  inhibition at 10 µM: 8.7%
BZD (peripheral)
  inhibition at 10 µM: 36.2%
CB1 (h)
  inhibition at 10 µM: 8.3%
CB2 (h)
  inhibition at 10 µM: 2%
EP2 (h)
  inhibition at 10 µM: -4%
ET-B (h)
  inhibition at 10 µM: 6%
M1 (h)
  inhibition at 10 µM: 2.6%
M2 (h)
  inhibition at 10 µM: 4.2%
M3 (h)
  inhibition at 10 µM: -0.9%
NK2 (h)
  inhibition at 10 µM: 12%
V1a (h)
  inhibition at 10 µM: 6.4%
a2A (h)
  inhibition at 10 µM: -5.5%
a2B (h) [3]
  inhibition at 10 µM: 12.2%
b2 (h) [4]
  inhibition at 10 µM: 4.4%
D (DOP) (h)
  inhibition at 10 µM: 2.9%
Dopamine transporter (h)
  inhibition at 10 µM: 53.2%
Motilin (h)
  inhibition at 10 µM: -10.8%

— paper PMC6326728, “eIF2B activator prevents neurological defects caused by a chronic integrated stress response” (eLife, 2019)
